# Laboratory results published in patent US5508401A, “Substituted dibenzo[a,d]cycloheptene NMDA antagonists” (priority 1991, dated 1996).
# How the values were obtained:
# NMDA [1] = test: Inhibition of NMDA-induced lethality in mice; type: in vivo, male Swiss-albino mice (CD-1 strain); settings: for Percent of animals which survived at the dose indicated / Efficacy Ratio (ED50/TD50) / ED50 Inhibition of NMDA-Induced Lethality: ip, mice; for Percent of animals which survived at the dose indicated: NMDA 195 mg/kg i.p.; for Efficacy Ratio (ED50/TD50): NMDA-induced lethality vs traction reflex deficit (ataxia); for ED50 Inhibition of NMDA-Induced Lethality: dose required to produce 50% survival rate, NMDA 195 mg/kg i.p. 30 min after compound
# Method: The mice were pretreated with the representative test compounds followed thirty minutes later with NMDA (195 mg/kg, i.p., the ED90 dose for generalized myoclonus). The mice were then observed for 30 minutes, noting the latency of onset of generalized myoclonus (uncontrollable hind leg scratching or limbs and/or torso muscle jerking with loss of […] reflex) and death. From the latter, the ED50 for survival is determined. In this standard experimental test procedure, the specific compounds tested and their activity, which representatively establish the activity for all the compounds herein, are presented in Table I as follows:
# (§1) NMDA-Induced Lethality and Traction Reflex Deficit (Ataxia)
# Of Lethality Reflex Deficit
# *As measured in mice. Defined as the dose required to produce 50% surviva
# #Percent of animals which survived at the dose indicated.
# [2] = Traction reflex deficit (ataxia) in mice; settings: mouse, in vivo, ip, dose which produced the deficit in 50% of animals tested
# Text: In fact, the separation between a compound's NMDA-antagonist activity and ataxic activity (often expressed as an "efficacy ratio" of the ED50 's of these two activities) has been extensively used to evaluate its therapeutic usefulness versus its liabilities. In our studies, PCP is approximately equipotent in its abilities to antagonize NMDA-induced lethality in mice and cause ataxia as measured by the traction reflex deficit model, giving an efficacy ratio (ED50 /TD50) of approximately 1.4 (Table 1, infra).
# as §1
# ^@ As measured in mice. Defined as the dose which produced the defici
# in 50% of animals tested.
# [3] = target: NMDA-associated ion channel; test: Displacement of [3H]-TCP from its binding site in rat frontal cortex homogenates; settings: functional binding assay without added spermidine
# Text: Ability to Displace [^3 H]-TCP from the NMDA Ion Channel
# *Functional binding assay without added spermidine.
# NMDA-induced responses = settings: cited from earlier work
# [4] = cited from earlier work
# NMDA [5] = settings: in words; cited from earlier work
# [6] = in vivo; cited from earlier work
# [7] = tested on: high-affinity PCP binding site in the NMDA-associated ion channel; settings: cited from earlier work
# cerebral ischemia = settings: in vivo; cited from earlier work
Compound,Percent of animals which survived at the dose indicated (NMDA [1]; 5 mg/kg),Efficacy Ratio (ED50/TD50) (NMDA [1]),ED50 Inhibition of NMDA-Induced Lethality (NMDA [1]),IC50 [3],further results
"CC12CNC(Cc3ccc(F)cc31)c1ccccc12 (stereo not shown) [Example 4, 10,11-Dihydro-3-fluoro-5-methyl-10,5-(iminomethano)-5H -dibenzo[a,d]cycloheptene]",90%,,,,
"CC12CNC(Cc3ccc(Cl)cc31)c1ccccc12 (stereo not shown) [Example 3, 10,11-Dihydro-3-chloro-5-methyl-10,5-(iminomethano)-5H-dibenzo[a,d]cycloheptene]",90%,,,,
"CC12CNC(Cc3ccc(Br)cc31)c1ccccc12 (stereo not shown) [Example 1, 10.11-Dihydro-3-bromo-5-methyl-10,5-(iminomethano)-5H -dibenzo[a,d]cycloheptene]",,3.2,4.6 mg/kg,192 nM,TD50 [2]: 14.7 mg/kg
COc1ccc2c(c1)[C@]13CCCC[C@@H]1[C@H](C2)N(C)CC3 [Dextromethorphan],,2.1,21 mg/kg,745 nM,Potency in antagonizing NMDA-induced lethality vs PCP and MK-801 (NMDA [1]; in words): not as potent as PCP and MK-801; Antagonism of NMDA-induced responses (NMDA-induced responses): noncompetitively antagonizes NMDA-induced responses; Metabolism in man [4]: metabolized to dextrorphan in man
C[C@]12N[C@H](Cc3ccccc31)c1ccccc12 [MK-801],,0.9,0.19 mg/kg,2.6 nM,Antagonism of NMDA-induced lethality (background statement) (NMDA [5]): antagonizes NMDA-induced lethality; Drug discrimination: generalization for PCP [6]: generalizes for PCP; Competition for the high-affinity PCP binding site [7]: competes for the high-affinity PCP binding site; Protection against cell death in cerebral ischemia models (cerebral ischemia): protects against cell death in cerebral ischemia models
"c1ccc(C2(N3CCCCC3)CCCCC2)cc1 [PCP, phencyclidine]",,,1.9 mg/kg,28.2 nM,Antagonism of NMDA-induced lethality (background statement) (NMDA [5]): antagonizes NMDA-induced lethality; Protection against cell death in cerebral ischemia models (cerebral ischemia): protects against cell death in cerebral ischemia models; Antagonism of NMDA-induced responses (NMDA-induced responses): noncompetitively antagonize NMDA-induced responses
"CN1CC[C@@]23CCCC[C@@H]2[C@@H]1Cc1ccc(O)cc13 [Dextrorphan, dextrorphan]",,,13 mg/kg,,
"CC12CNC(Cc3ccc(Br)cc31)c1ccccc12 (single isomer, unassigned; (+)) [Example 6, (+)-10,11-Dihydro-3-bromo-5-methyl-10,5-(iminomethano)-5H -dibenzo[a,d]cycloheptene]",,,2.2 mg/kg,89 nM,
"CC12CNC(Cc3ccc(Br)cc31)c1ccccc12 (single isomer, unassigned; (-)) [Example 5, (-)-10,11-Dihydro-3-bromo-5-methyl-10,5-(iminomethano)-5H -dibenzo[a,d]cycloheptene]",40%,,,1010 nM,
"CC12CNC(Cc3ccccc31)c1ccc(Br)cc12 (stereo not shown) [Example 2, 10,11-Dihydro-7-bromo-5-methyl-10,5-(iminomethano)-5H-dibenzo[a,d]cycloheptene]",,,,110 nM,Percent of animals which survived at the dose indicated (NMDA [1]; 20 mg/kg): 60%
